# “Also recorded” adds a separate entry of the source. Read-outs that look alike come from different tables or passages of the source.
# B1: wild type M. truncatula NFP gene: wild type M. truncatula NFP transgene used to transform nfp mutant roots (protein, UniProt Q0GXS4 1-595, looked up)
# chain: MSAFFLPSSSHALFLVLMLFFLTNISAQPLYISETNFTCPVDSPPSCETYVAYRAQSPNFLSLSNISDIFNLSPLRIAKASNIEAEDKKLIPDQLLLVPVTCGCTKNHSFANITYSIKQGDNFFILSITSYQNLTNYLEFKNFNPNLSPTLLPLDTKVSVPLFCKCPSKNQLNKGIKYLITYVWQDNDNVTLVSSKFGASQVEMLAENNHNFTASTNRSVLIPVTSLPKLDQPSSNGRKSSSQNLALIIGISLGSAFFILVLTLSLVYVYCLKMKRLNRSTSSSETADKLLSGVSGYVSKPTMYEIDAIMEGTTNLSDNCKIGESVYKANIDGRVLAVKKIKKDASEELKILQKVNHGNLVKLMGVSSDNDGNCFLVYEYAENGSLEEWLFSESSKTSNSVVSLTWSQRITIAMDVAIGLQYMHEHTYPRIIHRDITTSNILLGSNFKAKIANFGMARTSTNSMMPKIDVFAFGVVLIELLTGKKAMTTKENGEVVILWKDFWKIFDLEGNREERLRKWMDPKLESFYPIDNALSLASLAVNCTADKSLSRPTIAEIVLCLSLLNQPSSEPMLERSLTSGLDAEATHVVTSVIAR
# modifications: full-length
# notes: wild type M. truncatula NFP transgene used to transform nfp mutant roots
# B2: construct 41: Nfr1 promoter; LYK3 (protein, UniProt Q6UD73 1-620, looked up)
# chain: MNLKNGLLLFILFLDCVFFKVESKCVKGCDVALASYYIIPSIQLRNISNFMQSKIVLTNSFDVIMSYNRDVVFDKSGLISYTRINVPFPCECIGGEFLGHVFEYTTKEGDDYDLIANTYYASLTTVELLKKFNSYDPNHIPVKAKINVTVICSCGNSQISKDYGLFVTYPLRSDDTLAKIATKAGLDEGLIQNFNQDANFSIGSGIVFIPGRDQNGHFFPLYSRTGIAKGSAVGIAMAGIFGLLLFVIYIYAKYFQKKEEEKTKLPQTSRAFSTQDASGSAEYETSGSSGHATGSAAGLTGIMVAKSTEFTYQELAKATNNFSLDNKIGQGGFGAVYYAELRGEKTAIKKMDVQASSEFLCELKVLTHVHHLNLVRLIGYCVEGSLFLVYEHIDNGNLGQYLHGIGTEPLPWSSRVQIALDSARGLEYIHEHTVPVYIHRDVKSANILIDKNLRGKVADFGLTKLIEVGNSTLHTRLVGTFGYMPPEYAQYGDVSPKIDVYAFGVVLYELITAKNAVLKTGESVAESKGLVQLFEEALHRMDPLEGLRKLVDPRLKENYPIDSVLKMAQLGRACTRDNPLLRPSMRSIVVALMTLSSPTEDCDDDSSYENQSLINLLSTR
# modifications: full-length expressed from Nfr1 promoter
# notes: Nfr1 promoter; LYK3
# B3: A. thaliana CERK1: A. thaliana LysM chitin receptor CERK1 (protein, UniProt A8R7E6 24-617, looked up)
# Chitin elicitor receptor …: KCRTSCPLALASYYLENGTTLSVINQNLNSSIAPYDQINFDPILRYNSNIKDKDRIQMGSRVLVPFPCECQPGDFLGHNFSYSVRQEDTYERVAISNYANLTTMESLQARNPFPATNIPLSATLNVLVNCSCGDESVSKDFGLFVTYPLRPEDSLSSIARSSGVSADILQRYNPGVNFNSGNGIVYVPGRDPNGAFPPFKSSKQDGVGAGVIAGIVIGVIVALLLILFIVYYAYRKNKSKGDSFSSSIPLSTKADHASSTSLQSGGLGGAGVSPGIAAISVDKSVEFSLEELAKATDNFNLSFKIGQGGFGAVYYAELRGEKAAIKKMDMEASKQFLAELKVLTRVHHVNLVRLIGYCVEGSLFLVYEYVENGNLGQHLHGSGREPLPWTKRVQIALDSARGLEYIHEHTVPVYVHRDIKSANILIDQKFRAKVADFGLTKLTEVGGSATRGAMGTFGYMAPETVYGEVSAKVDVYAFGVVLYELISAKGAVVKMTEAVGEFRGLVGVFEESFKETDKEEALRKIIDPRLGDSYPFDSVYKMAELGKACTQENAQLRPSMRYIVVALSTLFSSTGNWDVGNFQNEDLVSLMSGR
# Legend:
# [1] = target: T1, Medicago truncatula NFP ectodomain, wild type (residues 28-246) (Medicago truncatula, UniProt Q0GXS4); experiment: biolayer interferometry (BLI) binding of S. meliloti Nod factor LCO-IV to NFP WT ectodomain; conditions: n = 7
# T1 construct: The M. truncatula NFP ectodomain (residues 28-246); AcMNPV gp67 signal peptide, replaces the native signal peptide (N); hexa-histidine (C); made in house; host or cells: Sf9 insect cells (Spodoptera frugiperda), baculovirus
# Description: (§1) The M. truncatula NFP ectodomain (residues 28-246) was codon-optimized for insect cell expression (Genscript, Piscataway, USA) and cloned into the pOET4 baculovirus transfer vector (Oxford Expression Technologies). The native NFP signal peptide (residues 1-27, predicted by SignalP 4.1) was replaced with the AcMNPV gp67 signal peptide to facilitate secretion and a hexa-histidine tag was added to the C-terminus. Recombinant baculoviruses were produced in […] (Spodoptera frugiperda) using the FlashBac Gold kit (Oxford Expression technologies) according to the manufacturer's instructions with Lipofectin (ThermoFisher Scientific) as a transfection reagent. Protein expression was performed as follows. Suspension-cultured Sf9 cells were maintained with shaking at 299 K in serum-free MAX-XP (BD-Biosciences, discontinued) or HyClone SFX (GE Healthcare) medium supplemented with 1% Pen-Strep (10000 U/ml, Life technologies) and 1% CD lipid concentrate (Gibco). Protein expression was induced by adding recombinant passage 3 virus once the Sf9 cells reached a cell density of 1.0*10^6 cells/ml. After 5-7 days of expression, medium supernatant containing NFP ectodomains was harvested by centrifugation. This was followed by an overnight dialysis step against 50 mM Tris-HCl pH 8, 200 mM NaCl at 277 K. The NFP ectodomain was enriched by two subsequent steps of Ni-IMAC purification (HisTrap excel/HisTrap HP, both GE Healthcare). For crystallography, N-glycans were removed using the endoglycosidase PNGase F (1:15 (w/w), room temperature, overnight). As a final purification step, NFP ectodomains was purified by SEC on a Superdex 200 10/300 or HiLoad Superdex 200 16/600 (both GE Healthcare) in phosphate buffered saline at pH 7.2 supplemented to a total of 500 mM NaCl (for binding assays) or 50 mM Tris-HCl, 200 mM NaCl (for crystallography). NFP ectodomain eluted as a single, homogeneous peak corresponding to a monomer.
# (§2) The binding assay using NFP wild type (WT) was replicated seven times, while the binding assay using the NFP mutant NFP L147D L154D was replicated four times.
# Binding of NFP WT and NFP L147D/L154D mutant to S. meliloti Nod factor LCO-IV was measured on an Octet RED 96 system (Pall ForteBio). […] Equilibrium dissociation constants derived from the steady-state were determined by applying a non-linear regression (one site, specific binding) to the response at equilibrium plotted against the protein concentration. Kinetic parameters were determined by non-linear regression (association followed by dissociation) on the subtracted data. […]
# [2] = target: T2, Medicago truncatula NFP ectodomain (residues 28-246) double mutant L147D L154D (Medicago truncatula, UniProt Q0GXS4, L147D/L154D); experiment: biolayer interferometry (BLI) binding of S. meliloti Nod factor LCO-IV to NFP L147D L154D ectodomain; conditions: double mutant vs WT
# T2 construct: The M. truncatula NFP ectodomain (residues 28-246); AcMNPV gp67 signal peptide, replaces the native signal peptide (N); hexa-histidine (C); made in house; host or cells: Sf9 insect cells (Spodoptera frugiperda), baculovirus
# Description: as §1
# The M. truncatula NFP leucine residues L147 and L154 were replaced with aspartate residues. Aspartate is similar in size to leucine, but negatively charged where leucine is hydrophobic. Point mutants of NFP were engineered using site-directed mutagenesis. In particular, a double-mutated NFP was engineered where the leucine residues L147 and L154 were replaced with aspartate residues to create the mutant NFP L147D L154D. Point mutated versions of the NFP ectodomain were expressed and purified as described above.
# as §2
# (§3) Binding of NFP WT and NFP L147D/L154D mutant to S. meliloti Nod factor LCO-IV was measured on an Octet RED 96 system (Pall ForteBio). S. meliloti Nod factor LCO-IV consists of a tetrameric/pentameric N-acetylglucosamine backbone that is O-sulfated on the reducing terminal residue, O-acetylated on the non-reducing terminal residue, and mono-N-acylated by unsaturated C16 acyl groups. Biotinylated ligand conjugates were immobilized on streptavidin biosensors (kinetic quality, Pall ForteBio) at a concentration of 125-250 nM for 5 minutes. The binding assays were replicated 7 times for the NFP WT, and 4 times for the NFP L147D/L154D mutant. Data analysis was performed in GraphPad Prism 6 software (GraphPad Software, Inc.). Equilibrium dissociation constants derived from the steady-state were determined by applying a non-linear regression (one site, specific binding) to the response at equilibrium plotted against the protein concentration. Kinetic parameters were determined by non-linear regression (association followed by dissociation) on the subtracted data. Table 9 summarizes the kinetic parameters of FIGS. 18C-18D, with goodness of fit described by the global fit R^2 on the mean value of each point, and number of replicates performed using independent protein preparations (n) indicated.
# [3] = tested on: M. truncatula nfp mutants; experiment: Complementation assay of M. truncatula nfp mutants, inoculation with S. meliloti strain 2011; type: in vivo, Medicago truncatula; conditions: nfp mutant roots; 6-7 weeks after inoculation with S. meliloti strain 2011
# From the text: Construct assembly, plant growth conditions, hairy root transformations, nodulation and ROS assays were generally conducted as described in Bozsoki, et al. 2017 (Bozsoki, Z. et al. Proc. Natl. Acad. Sci. 2017 114: E8118-E8127). The tested transgenes were the mutated LysM receptors described above.
# [4] = tested on: L. japonicus nfr1-1 loss-of-function mutant; experiment: Nodulation assay: complementation of L. japonicus nfr1-1 hairy roots after M. loti R7A DsRed inoculation; type: in vivo, Lotus japonicus; conditions: Nfr1 promoter, five weeks post inoculation
# Description: A. rhizogenes carrying the expression constructs of interest were grown for two days on solid medium. The cells of one plate were resuspended in 2 ml YMB media, and this process was repeated for each construct. A 1 ml syringe with a needle (Sterican Ø0.40×20 mm) was then used to transform the plants, whereby the needle was used to puncture the hypocotyl and a droplet with the bacterial suspension was placed on the wound. Petri dishes containing the transformed roots were sealed and left in the dark for two days and then moved to 21° C. under 16 hour light/8 hour dark conditions. After three weeks, plants with transformed roots were moved to Magenta boxes (Sigma-Aldrich) filled with a 4:1 mixture of lightweight expanded clay aggregate (LECA, 2-4 mm; Saint-Gobain Weber A/S) and vermiculite (size M; Damolin A/S) supplemented with 80 ml nitrogen-free ¼× B&D nutrient solution. All plants were grown at 21° C. under 16 hour light/8 hour dark conditions.
# Chimeric receptors under the control of the Nfr1 promoter were tested for their ability to complement a L. japonicus nfr1-1 loss-of-function mutant that is unable to develop root nodules (Radutoiu, S. et al. Nature 2003 425). […] At five weeks post inoculation, nodules were counted and images were acquired with a Leica FluoStereo M165FC microscope equipped with the Leica DFC310 FX camera. […]
# [5] = Biolayer interferometry of A. thaliana CERK1 binding to chitin fragments; conditions: BLI; CO5 and CO8; result in words
# Description: as §3, with “Table 9 summarizes the kinetic parameters of FIGS. 18C-18D, with goodness of fit described by the global fit R^2 on the mean value of each point, and number of replicates performed using independent protein preparations (n) indicated.” left out
# Binding of A. thaliana CERK1 (AtCERK1) to chitopentaose (CO5) and chitooctaose (CO8) was measured in the same way.
# T2 sequence (Q0GXS4 28-246 L147D/L154D): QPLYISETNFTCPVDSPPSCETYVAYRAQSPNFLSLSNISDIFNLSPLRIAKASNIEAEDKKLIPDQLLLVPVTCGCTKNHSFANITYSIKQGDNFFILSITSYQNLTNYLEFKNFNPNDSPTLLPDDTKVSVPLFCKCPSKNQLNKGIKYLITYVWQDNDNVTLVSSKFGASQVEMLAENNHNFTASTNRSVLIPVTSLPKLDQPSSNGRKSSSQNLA
molecule,measurement,setting,value
CCCCCC/C=C\CCCCC/C=C/C(=O)N[C@H]1[C@H](O[C@H]2[C@H](O)[C@@H](NC(C)=O)[C@H](O[C@H]3[C@H](O)[C@@H](NC(C)=O)[C@H](O[C@H]4[C@H](O)[C@@H](NC(C)=O)C(O)O[C@@H]4COS(=O)(=O)O)O[C@@H]3CO)O[C@@H]2CO)O[C@H](COC(C)=O)[C@@H](O)[C@@H]1O (stereo partly shown) [S. meliloti Nod factor LCO-IV],kon,"[1]; Table 8, read-out: A (converted)",0.958 M⁻¹ s⁻¹
same,koff,"[1]; Table 8, read-out: D (converted)",2.48e-05 s⁻¹
same,koff,"[1]; Table 9, BLI, read-out: koff",0.00064 s⁻¹
same,kon,"[1]; Table 9, BLI, read-out: kon",50.3 M⁻¹ s⁻¹
same,affinity versus NFP WT (Table 8 data),[2],approximately two times lower affinity
same,association (Kon) versus NFP WT (Table 8 data),[2],almost unaffected
same,"association rate (kon), fold faster than WT (Table 9 data)",[2],4.5 fold
same,"dissociation (Koff), times faster than NFP WT (Table 8 data)",[2],approximately 15 times
same,"dissociation rate (koff), fold increase over WT (Table 9 data)",[2],59 fold
same,lower affinity compared to WT NFP ectodomain (Table 9 data),[2],13 fold
B1,average nodules per plant,[3],10 nodules per plant
B2,nodule formation (complementation of nfr1),[4],absence of nodulation; also recorded: signaling incompetent
B3,binding kinetics to chitin fragments,[5],fast association and dissociation rates

# From US12643926B2, “LysM receptor motifs” (Aarhus Universitet, priority 2020, dated 2026)
